# Results reported in patent US20100063085A1, “METHOD OF TREATING LEARNING IMPAIRMENT IN DOWN'S SYNDROME SUBJECTS” (University Court of The University of Dundee, priority 2008, published 2010).
# Read-outs that look alike come from different tables or passages of the source.
# Tests used:
# Assay type in all cases: biochemical
# PKCa = PKCa (Homo sapiens, UniProt P17252); assay: PKCa 33P kinase assay; settings: read-out: PKCa activity as percentage of control without inhibitor; for remaining activity at 1 µM: inhibitor 1 μM; for remaining activity at 10 µM: inhibitor 10 μM
# Experimental: (§1) All assays (25.5 μl) were carried out at room temperature (21° C.) and were linear with respect to time and enzyme concentrations under the conditions used. Assays were performed for 30 minutes except assays for LCK and PKB which were performed for 15 minutes using Multidrop Micro reagent dispensers (Thermo Electron Corporation, Waltham, Mass. 02454, USA) in a 96-well format. The concentration of […] [γ-^33P] ATP (800 cpm/pmol) in the assays was one of three concentrations (5, 20 or 50 μM) in order to be at or below Km for ATP for the enzyme. Assays were initiated with MgATP and stopped by addition of 5 μl of 0.5M orthophosphoric acid. Assays were then harvested onto P81 filterplates using a unifilter harvester (PerkinElmer, Boston, Mass. 02118, USA), with a wash buffer of 50 mM orthophosphoric acid. Filterplates were then air dried overnight. 10 μl of Microscint O was added per well prior to counting for radioactivity.
# (§2) MKK1, JNK/SAPK1c, SAPK2a/p38, SAPK2b/p38β2, SAPK3/p38γ, SAPK4/p38δ, MAPK2/ERK2, MAPKAP-K1β, MAPKAP-K2, MSK1, PRAK, PKA, PKCα, PDK1, SGK, p70S6K, GSK3β, ROCK-II, PRK2, AMPK, CHK1, CHK2, CK2, PHK, LCK, were assayed according to Davies et al., (Davies, S. P., Reddy, H., Caivano, M. and Cohen, P. Biochem. J. 351, 95-105, 2000.
# (§3) CSK and CDK2/cyclinA, were assayed according to Bain et al. (Bain J, McLauchlan H, Elliott M, Cohen P. Biochem J. 371, 199-204, 2003., except that ATP concentrations were either 5, 20 or 50 micromolar so that they were at or below the Km for ATP. The ATP concentrations used were as follows, 5 μM for assays of MKK1, SAPK3, SAPK4, GSK3β, PRK2 CK2 20 μm for assays of JNK, SAPK2β, MAPKAP-K2, MSK1, PRAK, PKA, […], PDK1, SGK, p70S6K, ROCK-II, CHK1, CHK2, CSK, CDK2, and 50 μM for assays of SAPK2a, MAPK2/ERK2, AMPK, LCK, PHK and MAPKAP-K1β.
# MAPK2/ERK2 = MAPK2/ERK2 (Homo sapiens, UniProt P28482); assay: MAPK2/ERK2 33P kinase assay; settings: read-out: MAPK2/ERK2 activity as percentage of control without inhibitor
# MAPK2/ERK2, sequence (P28482 whole entry): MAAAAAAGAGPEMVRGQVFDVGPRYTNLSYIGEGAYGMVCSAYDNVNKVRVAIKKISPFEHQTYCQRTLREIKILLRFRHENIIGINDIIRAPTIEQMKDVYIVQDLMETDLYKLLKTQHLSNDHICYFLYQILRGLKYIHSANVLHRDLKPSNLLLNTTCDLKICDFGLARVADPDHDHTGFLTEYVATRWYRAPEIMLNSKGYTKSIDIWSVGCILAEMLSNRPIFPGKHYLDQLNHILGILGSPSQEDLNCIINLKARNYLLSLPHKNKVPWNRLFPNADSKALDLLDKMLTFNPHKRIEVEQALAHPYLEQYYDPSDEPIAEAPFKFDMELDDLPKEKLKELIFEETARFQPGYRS
# Experimental: as §1, §2, §3
# PRAK = biological target: T1, PRAK (Homo sapiens, UniProt Q8IW41); assay: PRAK 33P kinase assay; settings: read-out: PRAK activity as percentage of control without inhibitor; for remaining activity at 1 µM: inhibitor 1 μM; for remaining activity at 10 µM: inhibitor 10 μM
# T1 sequence (Q8IW41 1-473): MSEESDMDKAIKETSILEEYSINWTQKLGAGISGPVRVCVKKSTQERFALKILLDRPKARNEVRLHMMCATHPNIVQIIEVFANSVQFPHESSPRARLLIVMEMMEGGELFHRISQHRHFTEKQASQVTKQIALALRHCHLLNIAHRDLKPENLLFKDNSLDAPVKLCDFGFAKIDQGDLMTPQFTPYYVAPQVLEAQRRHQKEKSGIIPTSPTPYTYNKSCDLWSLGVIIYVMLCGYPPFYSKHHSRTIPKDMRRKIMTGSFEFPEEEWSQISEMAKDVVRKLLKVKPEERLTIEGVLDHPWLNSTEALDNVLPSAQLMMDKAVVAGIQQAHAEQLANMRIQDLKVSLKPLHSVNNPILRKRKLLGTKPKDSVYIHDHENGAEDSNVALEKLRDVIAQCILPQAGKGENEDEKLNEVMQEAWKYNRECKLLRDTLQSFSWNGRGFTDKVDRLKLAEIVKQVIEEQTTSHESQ
# Experimental: as §1, §2, §3
# Lck = Lck (Homo sapiens, UniProt P06239); assay: Lck 33P kinase assay; settings: read-out: Lck activity as percentage of control without inhibitor; for remaining activity at 1 µM: inhibitor 1 μM
# Lck, sequence (P06239 whole entry, species assumed): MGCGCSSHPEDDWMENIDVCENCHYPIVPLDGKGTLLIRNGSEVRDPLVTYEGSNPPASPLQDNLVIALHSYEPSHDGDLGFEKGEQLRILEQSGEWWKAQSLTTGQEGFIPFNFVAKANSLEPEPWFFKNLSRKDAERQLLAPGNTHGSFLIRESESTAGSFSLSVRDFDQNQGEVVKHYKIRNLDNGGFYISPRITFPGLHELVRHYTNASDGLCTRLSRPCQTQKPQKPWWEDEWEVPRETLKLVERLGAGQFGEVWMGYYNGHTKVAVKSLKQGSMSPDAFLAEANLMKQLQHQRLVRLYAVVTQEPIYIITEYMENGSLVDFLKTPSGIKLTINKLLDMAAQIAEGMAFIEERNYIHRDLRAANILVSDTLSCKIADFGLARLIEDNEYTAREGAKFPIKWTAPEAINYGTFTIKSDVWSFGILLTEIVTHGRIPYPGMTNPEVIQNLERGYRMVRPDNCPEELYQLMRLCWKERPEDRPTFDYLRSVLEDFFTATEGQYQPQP
# Experimental: as §1, with “Assays” for “All assays (25.5 μl) were carried out at room temperature (21° C.) and were linear with respect to time and enzyme concentrations under the conditions used. Assays”
# as §2, §3
Structure (SMILES),remaining activity at 1 µM (PKCa) [%],remaining activity at 10 µM (PKCa) [%],remaining activity at 1 µM (MAPK2/ERK2; inhibitor 1 μM) [%],remaining activity at 10 µM (MAPK2/ERK2; inhibitor 10 μM) [%],remaining activity at 1 µM (PRAK) [%],remaining activity at 10 µM (PRAK) [%],remaining activity at 1 µM (Lck) [%],remaining activity at 10 µM (Lck; inhibitor 10 μM) [%],remaining activity at 1 µM (MAPK2/ERK2) [%],remaining activity at 10 µM (MAPK2/ERK2) [%],remaining activity at 10 µM (Lck) [%]
COc1ccc2c3c([nH]c2c1)C(C)=NCC3 [Harmaline],88,81,80,89,88,93,77,87,,,
CC1=NCCc2c1[nH]c1cc(O)ccc21 [Harmalol],109,78,88,85,84,78,85,68,,,
COc1ccc2c(c1)[nH]c1c(C)nccc12 [Harmine],96,101,,,81,75,,,98,89,91
